This assay concerns the target Glutamate NMDA receptor. Type of assay: cell membranes, Rattus norvegicus, Wistar, Brain, Membrane.

SMILES strings stand for the structures.

The IC50 is the concentration at which inhibition is half-maximal. Lower therefore signals inhibition by little substance.

Description: Displacement of [3H]MK-801 from NMDA receptor in Wistar rat brain membranes by scintillation counting analysis

In turn, `NCCCCCCCCc1ccc(CCCCN)s1` yielded an IC50 of 0.43 µM. This counts as sub-micromolar.

`NCCOC(c1ccccc1)c1ccccc1` returned a half-maximal inhibitory concentration (IC50) of 5.48 µM.

In turn, `N=C(N)c1ccc(N2CCCN(c3ccc(C(=N)N)cc3)CC2)cc1` returned a concentration for half-maximal inhibition (IC50) of 0.35 µM.

With `C[C@@H](CN)C(c1cccc(F)c1)c1cccc(F)c1`, the half-maximal inhibitory concentration (IC50) came to 0.11 µM.

The compound `NCCCC12CCC(c3ccccc31)c1ccccc12` gave a concentration for half-maximal inhibition (IC50) of 7.44 µM. This IC50 is about 68-fold higher than that of the compound before.

Turning to `C[C@](N)(Cc1ccccc1)c1ccccc1`, inhibition was half-maximal at 0.78 µM (IC50).

As for `CN[C@@]1(c2ccccc2Cl)CCCCC1=O`, the IC50 worked out at 2.12 µM.

`NCCCCCCCCCCCCN`: the IC50 stood at 8.39 µM.

Compound `NC(N)=NCCCCN=C(N)N` [ARCAINE] showed an IC50 of 6.39 µM.

With `CN(C)CCCN1c2ccccc2Sc2ccc(Cl)cc21` [CHLORPROMAZINE], the IC50 came to 21 µM.

Regarding `CN[C@]1(c2ccccc2Cl)CCCCC1=O` [ESKETAMINE], it took 0.64 µM to reach half-maximal inhibition (IC50).

In the case of `NCCCN1c2ccccc2Sc2ccc(Cl)cc21` [NOR2-CHLORPROMAZINE], the midpoint of inhibition, the IC50, lay at 5.79 µM.

Take `c1ccc(C2(N3CCCCC3)CCCCC2)cc1` [PHENCYCLIDINE]: the IC50 is 0.11 µM.

`COC(=O)[C@@H](N)Cc1c[nH]c2ccccc12` [TRYPTOPHAN METHYL ESTER] had a half-maximal inhibitory concentration (IC50) of 169 µM. Compared with the last compound, the IC50 is about 1500-fold higher.

These data come from ChEMBL document CHEMBL3616463, “Differential influence of 7 cations on 16 non-competitive NMDA receptor blockers” (Bioorg Med Chem Lett, 2015).
